Reference: patent publication US20230338307A1, “PROPHYLACTIC AGENT, AMELIORATING AGENT, AND THERAPEUTIC AGENT FOR DRY EYE” (TSUBOTA LABORATORY, INC., priority 2020, published 2023)

Assays:
dry eye model [1] = assay: Tear film breakup time (BUT) test, dry eye model by systemic (intraperitoneal) erlotinib (Example 3); type: in vivo, mice; details: 0.003% (w/v) apocynin in PBS, 3 μL twice a day, one week after start; erlotinib 50 mg/kg/day i.p. model; FIG. 5
Protocol: After acclimating male C57BL6 mice (7 weeks old) to the experimental environment, those with almost uniform body weight values and no eye abnormalities were divided into the following 3 groups (n=4). • 7 weeks old/normal (non-dry eye group) • 7 weeks old/dry eye model+control (solvent eye drop) group • 7 weeks old/dry eye model+apocynin eye drop group The dry eye model was prepared by dissolving erlotinib at a concentration of 5 mg/ml in 0.5% methylcellulose solution and administering it by intraperitoneal injection at a concentration of 50 mg/kg/day daily from the start of the study. The solvent 0.5% methylcellulose solution was similarly administered to the normal non-administration group. After one week of administration of erlotinib, the control group received PBS alone, and the test group received a solution of 0.003% (w/v) apocynin suspended in PBS twice a day at both eyes with 3 μL each. One week after the start of instillation, 1 μL of 0.1% sodium fluorescein solution was instilled into each of both eyes under isoflurane anesthesia, and the BUT test was performed under a blue filter using a slit lamp (Kowa Co., Ltd., SL-17) (FIG. 5).

dry eye model [2] = assay: Fluorescein staining score, dry eye model by 0.2% benzalkonium chloride instillation (Example 2); type: in vivo, mice; details: 0.003% (w/v) apocynin in PBS, 3 μL 4 times daily, two days after start; 0.2% benzalkonium chloride model; FIG. 4
From the text: After acclimating male C57BL6 mice ([…]) to the experimental environment, those with almost uniform weight values and no eye abnormalities were divided into the following 3 groups (n=3). • 7 weeks old/normal (non-dry eye group) • 7 weeks old/dry eye model+control (solvent eye drop) group • 7 weeks old/dry eye model+apocynin eye drop group The dry eye model was created by instilling a 0.2% benzalkonium chloride solution based on the method of Lin et al. (Non-patent Document 4). In this model, instillation of the 0.2% benzalkonium chloride solution causes dry eye symptoms such as shortened BUT, decreased tear volume, and corneal epithelial damage after 1 day of administration (Non-patent Document 4). After the benzalkonium chloride solution was instilled twice daily for 2 days, PBS alone was administered to the control group, and for the test group, a solution of apocynin 0.003% (w/v) suspended in PBS was administered to both eyes at 3 μL each, 4 times daily. Two days after the start of apocynin instillation, 1 μL of 0.1% fluorescein sodium solution was instilled into each of both eyes under isoflurane anesthesia, and stained images were taken under a blue filter using a slit lamp (Kowa Co., Ltd., SL-17). The fluorescein staining scores were analyzed (FIG. 4).

dry eye model [3] = assay: Fluorescein staining score (corneal epithelial damage), dry eye model by erlotinib instillation (Example 1); type: in vivo; details: 0.003% (w/v) apocynin eye drop twice daily, two weeks; erlotinib-instilled mice; FIG. 3
From the text: After acclimating male C57BL6 mice (7 weeks old) to the experimental environment, those with almost uniform body weight values and no eye abnormalities were divided into the following 3 groups (n=5). • 7 weeks old/normal (non-dry eye group) • 7 weeks old/dry eye model+control (solvent eye drop) group • 7 weeks old/dry eye model+apocynin eye drop group The dry eye model was created by daily instillation of an EGF receptor inhibitor (erlotinib) based on the method of Yang et al. In this model, administration of erlotinib causes dry eye symptoms such as shortened BUT, decreased tear volume, and corneal damage after 1 week of administration (Non-patent Document 3). After 20 μM of erlotinib was instilled for 2 weeks, the control group received PBS alone, and the test group received 3 μL of a suspension of 0.003% (w/v) apocynin in PBS twice daily. […] Under anesthesia, the tip of a Schirmer test paper cut to 1 mm width was inserted into the conjunctival sac of the lower eyelid of the mouse, the test paper was removed after 5 minutes, the length of the wetted part was read in units of 0.5 mm, and the value was used as the tear volume (FIG. 2). In the dry eye model prepared in Example 1, after BUT measurement, fluorescein-stained images were photographed under a blue filter using a slit lamp (Kowa Co., Ltd., SL-17), and corneal epithelial damage was analyzed (FIG. 3). […]

dry eye model [4] = assay: Fluorescein staining score, benzalkonium chloride dry eye model, Comparative Study 1 (Example 4); type: in vivo, mice
Protocol: After acclimating male C57BL6 mice (7 weeks old) to the experimental environment, those with almost uniform weight values and no eye abnormalities were divided into the following groups (n=4). • 7 weeks old/normal (non-dry eye group) • 7 weeks old/dry eye model+control (solvent eye drop) group • 7 weeks old/dry eye model+0.1% (w/v) apocynin eye drop group • 7 weeks old/dry eye model+0.5% (w/v) hyaluronic acid eye drop group A dry eye model was prepared by instilling the benzalkonium chloride solution at 3 μL each eye, twice a day for 8 days. After that, the control group received the 0.5% methylcellulose solution alone, and the test group received 0.1% (w/v) apocynin or 0.5% (w/v) hyaluronic acid suspended in the 0.5% methylcellulose solution twice a day for 15 days at 3 μL for each of both eyes. In Example 4, 1, 3, 6, 8, and 15 days after the start of instillation of the comparative test drug, 1 μL of the 0.1% fluorescein sodium solution was instilled into each of both eyes. Fluorescein-stained images were observed under a blue filter using a slit lamp (Kowa Co., Ltd., SL-17), and the degree of corneal epithelial damage was scored.

`COc1cc(C(C)=O)ccc1O` [apocynin, 4-hydroxy-3-methoxyacetophenone] was tested, and the “tear film breakup time (BUT)” value (dry eye model [1]) was “significantly improved”, the “corneal epithelial damage (fluorescein staining score)” value (dry eye model [2]) was “significantly improved” and the “corneal epithelial damage (fluorescein staining score)” value (dry eye model [3]) was “significant improvement was observed”. The “fluorescein staining score (corneal damage)” value (dry eye model [4]; 3 days after start of instillation, compared to control, 0.1% (w/v) apocynin or 0.5% (w/v) hyaluronic acid twice a day, FIG. 9A) was “significantly reduced” and the “fluorescein staining score (corneal damage)” value (dry eye model [4]; 15 days after start of instillation, 0.1% (w/v) apocynin twice a day, FIG. 9B) was “significant decrease”.
